Experimental data taken from ChEMBL document CHEMBL1641425, “Discovery of 1-(3,4-dichlorophenyl)-N,N-dimethyl-1,2,3,4-tetrahydroquinolin-4-amine, a dual serotonin and dopamine reuptake inhibitor” (Bioorg Med Chem Lett, 2011).

Assays:
[1] = molecular target: Sodium-dependent dopamine transporter (Homo sapiens, UniProt Q01959); assay: Inhibition of human recombinant dopamine transporter
[2] = molecular target: Sodium-dependent serotonin transporter (Homo sapiens, UniProt P31645); assay: Inhibition of human recombinant 5HT transporter
Sequence of Sodium-dependent serotonin transporter (P31645 whole entry): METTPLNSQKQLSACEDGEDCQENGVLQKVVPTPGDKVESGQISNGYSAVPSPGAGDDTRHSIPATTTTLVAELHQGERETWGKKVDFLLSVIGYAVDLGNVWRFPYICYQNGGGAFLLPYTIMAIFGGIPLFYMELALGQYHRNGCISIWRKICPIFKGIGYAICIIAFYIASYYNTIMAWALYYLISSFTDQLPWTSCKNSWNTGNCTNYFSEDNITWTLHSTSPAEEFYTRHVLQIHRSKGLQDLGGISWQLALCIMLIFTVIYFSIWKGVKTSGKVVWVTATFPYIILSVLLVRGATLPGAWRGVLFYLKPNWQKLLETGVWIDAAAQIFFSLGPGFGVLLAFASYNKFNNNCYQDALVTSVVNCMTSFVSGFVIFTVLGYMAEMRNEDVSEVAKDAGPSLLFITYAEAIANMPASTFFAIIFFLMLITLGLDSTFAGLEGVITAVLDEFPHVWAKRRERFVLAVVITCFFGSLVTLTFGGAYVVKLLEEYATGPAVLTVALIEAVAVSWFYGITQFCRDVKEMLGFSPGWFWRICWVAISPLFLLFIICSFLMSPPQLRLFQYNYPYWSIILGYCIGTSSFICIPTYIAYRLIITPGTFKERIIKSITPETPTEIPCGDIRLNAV

[3] = molecular target: Sodium-dependent noradrenaline transporter (Homo sapiens, UniProt P23975); assay: Inhibition of human recombinant norepinephrine transporter
Sequence of Sodium-dependent noradrenaline transporter (P23975 whole entry): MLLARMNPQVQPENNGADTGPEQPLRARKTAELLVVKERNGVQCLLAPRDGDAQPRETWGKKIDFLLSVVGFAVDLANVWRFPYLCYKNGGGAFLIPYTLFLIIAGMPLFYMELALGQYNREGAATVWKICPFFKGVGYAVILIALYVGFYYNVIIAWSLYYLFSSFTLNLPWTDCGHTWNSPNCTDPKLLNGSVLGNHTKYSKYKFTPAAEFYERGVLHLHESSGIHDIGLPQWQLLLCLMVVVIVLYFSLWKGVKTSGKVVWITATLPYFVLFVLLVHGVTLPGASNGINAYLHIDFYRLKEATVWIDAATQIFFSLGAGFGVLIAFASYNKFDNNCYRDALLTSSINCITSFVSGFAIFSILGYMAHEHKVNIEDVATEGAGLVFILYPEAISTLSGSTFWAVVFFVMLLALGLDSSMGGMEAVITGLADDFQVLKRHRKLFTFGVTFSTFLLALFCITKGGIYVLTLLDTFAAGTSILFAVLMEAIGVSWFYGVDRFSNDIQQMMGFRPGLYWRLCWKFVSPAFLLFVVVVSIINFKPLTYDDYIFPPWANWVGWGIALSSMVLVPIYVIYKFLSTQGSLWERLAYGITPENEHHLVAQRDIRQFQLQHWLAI

[4] = molecular target: Voltage-gated inwardly rectifying potassium channel KCNH2 (Homo sapiens, UniProt Q12809)
Sequence of Voltage-gated inwardly rectifying potassium channel KCNH2 (Q12809 whole entry): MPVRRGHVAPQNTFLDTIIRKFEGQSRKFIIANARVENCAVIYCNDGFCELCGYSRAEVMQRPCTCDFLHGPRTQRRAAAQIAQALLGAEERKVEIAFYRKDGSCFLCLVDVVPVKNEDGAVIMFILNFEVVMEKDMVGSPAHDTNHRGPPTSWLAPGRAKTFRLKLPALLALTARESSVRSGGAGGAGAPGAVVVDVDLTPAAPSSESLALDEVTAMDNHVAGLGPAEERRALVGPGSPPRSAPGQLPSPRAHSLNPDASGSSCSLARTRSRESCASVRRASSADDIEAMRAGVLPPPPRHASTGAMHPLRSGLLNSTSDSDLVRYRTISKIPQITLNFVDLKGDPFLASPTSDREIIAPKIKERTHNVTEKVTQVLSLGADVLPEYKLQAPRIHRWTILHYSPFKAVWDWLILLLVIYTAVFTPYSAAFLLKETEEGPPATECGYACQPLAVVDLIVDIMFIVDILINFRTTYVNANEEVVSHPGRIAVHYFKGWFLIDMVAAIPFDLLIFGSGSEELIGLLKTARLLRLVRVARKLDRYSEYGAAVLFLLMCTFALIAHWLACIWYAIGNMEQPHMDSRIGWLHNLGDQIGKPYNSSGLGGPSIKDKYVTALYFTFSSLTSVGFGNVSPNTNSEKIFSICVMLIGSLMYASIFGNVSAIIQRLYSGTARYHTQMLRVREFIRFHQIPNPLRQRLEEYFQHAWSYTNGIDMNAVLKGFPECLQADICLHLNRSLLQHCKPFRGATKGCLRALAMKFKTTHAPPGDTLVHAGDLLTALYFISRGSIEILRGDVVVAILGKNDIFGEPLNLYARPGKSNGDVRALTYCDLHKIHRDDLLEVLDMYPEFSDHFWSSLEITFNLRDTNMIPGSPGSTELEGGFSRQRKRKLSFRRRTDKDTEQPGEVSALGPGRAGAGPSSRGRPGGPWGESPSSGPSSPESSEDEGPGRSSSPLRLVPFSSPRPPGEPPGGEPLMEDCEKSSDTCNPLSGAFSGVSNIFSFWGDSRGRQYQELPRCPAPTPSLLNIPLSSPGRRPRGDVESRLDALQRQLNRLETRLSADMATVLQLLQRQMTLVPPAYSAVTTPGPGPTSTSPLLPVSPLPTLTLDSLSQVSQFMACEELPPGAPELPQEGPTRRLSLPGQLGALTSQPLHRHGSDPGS

[5] = molecular target: Cytochrome P450 2D6 (Homo sapiens, UniProt P10635); assay: Inhibition of CYP2D6; format: ADME
Sequence of Cytochrome P450 2D6 (P10635 whole entry): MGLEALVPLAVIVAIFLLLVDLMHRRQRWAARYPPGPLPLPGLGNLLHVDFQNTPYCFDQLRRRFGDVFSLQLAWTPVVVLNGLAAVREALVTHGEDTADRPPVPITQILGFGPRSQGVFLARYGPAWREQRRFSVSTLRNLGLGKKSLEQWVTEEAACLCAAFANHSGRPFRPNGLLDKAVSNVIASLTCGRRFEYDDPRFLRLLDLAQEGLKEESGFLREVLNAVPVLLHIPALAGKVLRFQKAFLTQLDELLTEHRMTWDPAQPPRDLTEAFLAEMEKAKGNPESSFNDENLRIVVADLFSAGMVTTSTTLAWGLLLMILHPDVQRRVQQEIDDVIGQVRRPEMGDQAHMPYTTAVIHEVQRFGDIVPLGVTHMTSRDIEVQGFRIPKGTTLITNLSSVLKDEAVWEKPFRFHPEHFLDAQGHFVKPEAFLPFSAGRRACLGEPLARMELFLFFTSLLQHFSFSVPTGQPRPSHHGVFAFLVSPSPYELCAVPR

[6] = Half life in human microsomes; format: ADME, Microsome
[7] = Half life in mouse microsomes; format: ADME, Microsome
[8] = molecular target: Cytochrome P450 3A4 (Homo sapiens, UniProt P08684); assay: Inhibition of CYP3A4; format: ADME
Sequence of Cytochrome P450 3A4 (P08684 whole entry): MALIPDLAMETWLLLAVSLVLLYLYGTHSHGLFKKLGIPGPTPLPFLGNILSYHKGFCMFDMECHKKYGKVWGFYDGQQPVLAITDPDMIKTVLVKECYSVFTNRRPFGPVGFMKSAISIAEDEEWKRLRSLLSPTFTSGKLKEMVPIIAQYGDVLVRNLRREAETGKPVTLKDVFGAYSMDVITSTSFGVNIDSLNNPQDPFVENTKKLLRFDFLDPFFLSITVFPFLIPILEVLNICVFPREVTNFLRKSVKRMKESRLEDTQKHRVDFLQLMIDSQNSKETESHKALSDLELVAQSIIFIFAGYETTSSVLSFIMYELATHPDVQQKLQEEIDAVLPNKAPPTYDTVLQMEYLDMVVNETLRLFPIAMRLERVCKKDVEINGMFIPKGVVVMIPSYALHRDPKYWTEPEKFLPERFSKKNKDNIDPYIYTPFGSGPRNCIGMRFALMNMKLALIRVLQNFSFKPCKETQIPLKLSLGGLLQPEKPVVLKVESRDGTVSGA

[9] = molecular target: Cytochrome P450 2C9 (Homo sapiens, UniProt P11712); assay: Inhibition of CYP2C9; format: ADME
Sequence of Cytochrome P450 2C9 (P11712 whole entry): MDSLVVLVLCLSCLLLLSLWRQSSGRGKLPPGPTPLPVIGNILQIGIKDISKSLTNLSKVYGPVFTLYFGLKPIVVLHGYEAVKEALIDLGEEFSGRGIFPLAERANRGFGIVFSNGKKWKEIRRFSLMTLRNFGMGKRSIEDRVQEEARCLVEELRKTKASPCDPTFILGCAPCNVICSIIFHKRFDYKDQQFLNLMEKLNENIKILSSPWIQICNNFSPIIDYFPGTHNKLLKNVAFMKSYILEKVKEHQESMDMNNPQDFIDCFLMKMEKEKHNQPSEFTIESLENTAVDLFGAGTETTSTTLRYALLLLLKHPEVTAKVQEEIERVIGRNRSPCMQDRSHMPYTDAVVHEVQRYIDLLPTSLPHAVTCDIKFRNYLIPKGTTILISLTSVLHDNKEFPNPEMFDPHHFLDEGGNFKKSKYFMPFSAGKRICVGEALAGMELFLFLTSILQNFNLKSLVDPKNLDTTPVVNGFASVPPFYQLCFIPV

[10] = molecular target: Cytochrome P450 2C19 (Homo sapiens, UniProt P33261); assay: Inhibition of CYP2C19; format: ADME
Sequence of Cytochrome P450 2C19 (P33261 whole entry): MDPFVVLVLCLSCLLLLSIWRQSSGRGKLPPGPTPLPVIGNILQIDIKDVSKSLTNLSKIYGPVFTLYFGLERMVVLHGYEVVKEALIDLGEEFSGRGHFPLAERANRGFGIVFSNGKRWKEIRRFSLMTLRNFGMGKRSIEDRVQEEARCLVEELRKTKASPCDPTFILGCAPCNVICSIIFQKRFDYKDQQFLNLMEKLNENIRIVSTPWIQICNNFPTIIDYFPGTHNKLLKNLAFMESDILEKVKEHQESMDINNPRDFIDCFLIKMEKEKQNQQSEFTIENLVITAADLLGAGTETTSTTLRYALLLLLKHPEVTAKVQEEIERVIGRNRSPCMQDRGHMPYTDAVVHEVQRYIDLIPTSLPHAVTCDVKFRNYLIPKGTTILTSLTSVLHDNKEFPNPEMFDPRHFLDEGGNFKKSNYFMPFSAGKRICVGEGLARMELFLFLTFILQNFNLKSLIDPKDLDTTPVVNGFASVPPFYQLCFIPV

[11] = Inhibition of CYP1A; format: ADME

Sequence of Sodium-dependent dopamine transporter (Q01959 whole entry): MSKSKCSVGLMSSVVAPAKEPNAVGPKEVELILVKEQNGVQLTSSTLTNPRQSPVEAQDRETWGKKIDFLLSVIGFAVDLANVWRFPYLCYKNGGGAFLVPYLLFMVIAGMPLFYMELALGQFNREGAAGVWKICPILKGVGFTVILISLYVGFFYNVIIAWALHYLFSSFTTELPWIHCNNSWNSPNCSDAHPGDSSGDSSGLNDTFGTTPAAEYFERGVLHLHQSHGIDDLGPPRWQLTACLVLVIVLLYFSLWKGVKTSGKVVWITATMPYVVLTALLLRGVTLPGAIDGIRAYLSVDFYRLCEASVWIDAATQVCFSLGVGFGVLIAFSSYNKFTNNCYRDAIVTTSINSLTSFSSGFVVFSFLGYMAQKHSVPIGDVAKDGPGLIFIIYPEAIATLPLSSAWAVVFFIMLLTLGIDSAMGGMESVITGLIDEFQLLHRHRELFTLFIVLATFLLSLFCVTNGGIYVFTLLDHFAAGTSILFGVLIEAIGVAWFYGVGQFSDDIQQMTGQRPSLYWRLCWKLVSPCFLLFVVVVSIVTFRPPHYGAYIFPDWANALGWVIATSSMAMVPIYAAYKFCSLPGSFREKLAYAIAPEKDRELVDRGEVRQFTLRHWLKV

| Compound | IC50 [1] | IC50 [2] | IC50 [3] | IC50 [4] | IC50 [5] | half-life [6] | half-life [7] | IC50 [8] | IC50 [9] | IC50 [10] | IC50 [11] |
| --- | --- | --- | --- | --- | --- | --- | --- | --- | --- | --- | --- |
| N[C@H]1Cc2ccccc2N(c2ccc(Cl)c(Cl)c2)C1 | 465 nM | 2400 nM | 1850 nM | – | – | – | – | – | – | – | – |
| CN[C@H]1Cc2ccccc2[C@@H](c2ccc(Cl)c(Cl)c2)C1 | 72 nM | – | – | – | – | – | – | – | – | – | – |
| NC1CCN(c2ccc(Cl)c(Cl)c2)c2ccccc21 (stereo unspecified) | 246 nM | 650 nM | 926 nM | – | – | – | – | – | – | – | – |
| CN(C)C1CCN(c2ccc(Cl)c(Cl)c2)c2ccccc21 (stereo unspecified) | 5030 nM | 3 nM | 7140 nM | – | – | – | – | – | – | – | – |
| CNC1CCN(c2ccc(Cl)c(Cl)c2)c2ccccc21 (stereo unspecified) | 39 nM | 20 nM | 934 nM | 7800 nM | 3000 nM | 3.32 h | 0.367 h | > 25000 nM | > 25000 nM | 14100 nM | > 25000 nM |
| N[C@@H]1CCN(c2ccc(Cl)c(Cl)c2)c2ccccc21 | 12 nM | 116 nM | 138 nM | 3500 nM | 4870 nM | > 5 h | 3.35 h | > 25000 nM | > 25000 nM | > 25000 nM | > 25000 nM |
| CN[C@@H]1CCN(c2ccc(Cl)c(Cl)c2)c2ccccc21 | 8 nM | 132 nM | 601 nM | 3250 nM | 1500 nM | > 5 h | > 5 h | > 25000 nM | > 25000 nM | 19000 nM | > 25000 nM |
| CN(C)[C@@H]1CCN(c2ccc(Cl)c(Cl)c2)c2ccccc21 | 16 nM | 7 nM | 1180 nM | – | 6020 nM | > 5 h | 0.005 h | > 25000 nM | 250 nM | > 25000 nM | > 25000 nM |
| NC1Cc2ccccc2N(c2ccc(Cl)c(Cl)c2)C1 (stereo unspecified) | 605 nM | 2550 nM | 2600 nM | – | – | – | – | – | – | – | – |
| CN(C)C1Cc2ccccc2N(c2ccc(Cl)c(Cl)c2)C1 (stereo unspecified) | 122 nM | 436 nM | 1860 nM | – | – | – | – | – | – | – | – |
| CNC1Cc2ccccc2N(c2ccc(Cl)c(Cl)c2)C1 (stereo unspecified) | 177 nM | 985 nM | 1010 nM | – | – | – | – | – | – | – | – |
| CN[C@H]1Cc2ccccc2N(c2ccc(Cl)c(Cl)c2)C1 | 100 nM | 128 nM | 1250 nM | – | 100 nM | 3.95 h | 0.333 h | – | – | – | – |
| CN(C)[C@H]1Cc2ccccc2N(c2ccc(Cl)c(Cl)c2)C1 | 309 nM | 5560 nM | 3090 nM | – | – | – | – | – | – | – | – |
